According to PubChem BioAssay AID463074 (Broad Institute, 2010):
Active and inactive are the calls of the source.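 Rule for the calls: active = AC50 no more than tenfold above the top dose tested, or full inhibition at every dose with a flat fit (cut at about 19 µM in these data); inconclusive = flat curve fit with inhibition between 30% and 70%, or poor fit; inactive = AC50 more than tenfold above the top dose tested.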

Tested on: HMLE_sh_eGFP viability, CellTiter-Glo luminescence, 72 h
Test: viability loss of HMLE_sh_eGFP cells – cell-based, luminescence, counter-screen for HMLE_sh_ECad selective toxicity project, dose response (AID 463074);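 note: counterscreen control line to flag general toxicity for the HMLE_sh_ECad screen; potency for loss of viability as luminescence drops below DMSO wells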

Compound | AC50
Nc1cc(Cl)ccc1Oc1ccc2ccccc2c1 | > 10 µM (inactive)
CCOc1cc(/C=N/O)cc(Br)c1OCc1ccc(Cl)cc1 | 5.69 µM
CC(C)Oc1cccc(C(=O)NC(=S)Nc2ccccc2N2CCOCC2)c1 | 13.9 µM
CCCC(O)(c1ccc(Cl)cc1)C(CN1CCOCC1)c1ccc(Cl)cc1 (configuration not stated) | 9.47 µM
Clc1ccc(Nc2ncnc3ccc(Br)cc23)cc1 | 17.5 µM
CCCCNc1c(-c2ccc(SC(C)CC)cc2)nc2ccccn12 (configuration not stated) | 4.06 µM
COc1ccc(-n2c(Cc3cccn3C)nnc2SCC(=O)Nc2cccc(Cl)c2)cc1 | > 19.5 µM (inactive)
O=C(NCCCSc1ccccc1)c1cc(Br)ccc1O | 5.85 µM
COc1cccc(NP(=O)(Oc2ccc(Cl)cc2)Oc2ccc(Cl)cc2)c1 | 5.83 µM
CN(/N=C/c1cc(Br)cc(Br)c1O)c1cccc(C(F)(F)F)n1 | 12.7 µM
C[C@]12CC[C@H]3[C@@H](CC[C@]4(O)C[C@@H](O)CC[C@]34C=O)[C@@]1(O)CC[C@@H]2C1=CC(=O)OC1 | 0.446 µM
O=[N+]([O-])c1cc(C(F)(F)F)ccc1NCCc1c[nH]c2ccccc12 | 4.16 µM
COc1ccc(-n2nc3c(N4CCC(C(=O)NCCc5ccccc5C)CC4)nnc(C)c3c2C)cc1 | 4.85 µM
CC(C)(C)OC(=O)[C@H](Cc1ccccc1)NC(=O)c1[nH]cnc1C(=O)Nc1ccc(Cl)cc1 | 3.92 µM
COc1ccc(OC)c(NC(=O)NNC(=O)COc2ccc(-c3ccccc3)cc2)c1 | > 19.5 µM (inactive)
Cc1ccc(CCC(=O)Nc2ncc(Cc3cc(Cl)ccc3Cl)s2)o1 | 13.6 µM
COc1cccc(-c2ccc(C#N)c(OC(=O)c3c(Cl)cccc3Cl)n2)c1 | 4.45 µM
CCC(=O)NC(=S)Nc1cccc(Cl)c1N1CCCCC1 | 9.96 µM
CCCCCc1cc(=O)oc2c(C(CCN3CCCC(C)C3)c3ccc4c(c3)OCO4)c(OC)cc(OC)c12 (configuration not stated) | 6.78 µM
O=C(Cc1ccc(Cl)cc1)Nc1ccc2c(c1)C(=O)NC2=O | > 19.5 µM (inactive)
CCCCNc1c(-c2ccc(OC)c(SC3CCCCC3)c2)nc2cc(C)ccn12 | 5.29 µM
CCOC(=O)Nc1ccc2nc(Sc3ccc(Cl)cc3)sc2c1 | 2.97 µM
COc1ccc(OC)c(NC(=O)c2nnn(Cc3ccccc3C)c2N)c1 | 3.61 µM
CCCCCc1nc2c(c(=O)c3ccccc3n2C)c(=O)n1C1CCCCCC1 | 2.97 µM
N#CC1=C(SCC(=O)c2ccc(Cl)cc2)NC2=C(C(=O)CCC2)C1c1ccco1 (configuration not stated) | 3.57 µM
C[C@H]1[C@H](C)CC[C@]2(C)CC[C@]3(C)C(=CC(=O)C4[C@@]5(C)CC[C@H](O)C(C)(C)C5CC[C@]43C)[C@H]12 (some centres not stated) | 3.67 µM

Compound | AC50
O=C(Nc1cccc(-c2csc(Nc3cccc(C(F)(F)F)c3)n2)c1)c1ccccc1 | 3.42 µM
O=C(Nc1ccc(Nc2ccccc2)cc1)c1ccccc1 | 13.5 µM
Cc1nn(Cc2c(Cl)cccc2Cl)c(C)c1NC(=O)c1cn(-c2ccccc2)nc1-c1ccccc1 | 1.19 µM
CS(=O)(=O)c1ncc(Cl)c(C(=O)Nc2ccc(N3CCOCC3)cc2)n1 | 6.81 µM
CNC(=S)N/N=C/c1cn(Cc2ccc(C)cc2)c2ccccc12 | 5.94 µM
CC(=O)[C@@]1(O)C(C)CC2C3C=C(C)C4=Cc5c(cnn5-c5ccccc5)C[C@]4(C)C3C(O)C[C@@]21C (some centres not stated) | 4.03 µM
CC(C)N1CCN(Cc2ccc(OCc3ccccc3)cc2)CC1CCO (configuration not stated) | 11.5 µM
CC(NC(=O)COC(=O)c1cc(NS(=O)(=O)c2ccc(Cl)c([N+](=O)[O-])c2)ccc1O)C1CC2CCC1C2 (configuration not stated) | 3.52 µM
Oc1ccccc1C1=NN(c2ccccc2)C(c2ccccc2)C1 (configuration not stated) | 1.63 µM
O=[N+]([O-])c1ccc(N2N=C(c3ccccc3)CC2c2ccccc2O)cc1 (configuration not stated) | 2.51 µM
Cc1ccc(/C=C/C(=O)Nc2ccc(Oc3ccccc3)cc2)o1 | 5.42 µM
O=C(Nc1nnc(-c2ccc(Cl)cc2)o1)c1nc2ccccc2s1 | 5.29 µM
CCCNC(=O)c1onc(CSc2ccc(Cl)cc2)c1C(=O)NCCC(C)C | 2.99 µM
C=CCNCCCOc1ccc(Cl)cc1C(C)(C)C | 14.9 µM
Cc1ccc(C2(c3noc(CN4CCC(c5ccncc5)CC4)n3)CCCC2)cc1 | 2.32 µM
CCCCCCOc1ccc(/C(C)=N/NC2=NCCN2)cc1[N+](=O)[O-] | 3.69 µM
CCOC(=S)SCC(=O)Nc1nc(-c2ccc(Br)cc2)cs1 | 3.54 µM
O=C(c1ccc(C#CC2(O)CCCCC2)cc1)N1CCN(C(c2ccccc2)c2ccccc2)CC1 | 2.52 µM
NC(=O)CC(NC(=O)Cc1cccc2ccccc12)c1ccc(NCc2ccc(F)c(F)c2)c([N+](=O)[O-])c1 (configuration not stated) | 10.7 µM
COc1ccc(C(=O)Nc2cccc(/C=C/c3nc4ccccc4c(=O)[nH]3)c2)cc1 | 3.58 µM
CCCCCCCCOC(=O)C1=C(C)Nc2nnnn2C1c1cccs1 (configuration not stated) | 6.86 µM
Cn1nc(-c2ccccc2F)c2cc(C(=O)Nc3ccc4c(c3)OCCO4)sc21 | > 19.5 µM (inactive)
Oc1ccccc1N1CCN(c2ncnc3sc(-c4ccccc4)cc23)CC1 | 3.53 µM
Cc1csc(N/N=C/c2ccccn2)n1 | 11 µM
O=C(/C=C/c1ccccc1)NC(=S)NNC(=O)c1cnccn1 | 6.84 µM
COc1ccc(-c2sc3cc(OC)c(OC)cc3c2-c2ccc(O)cc2)cc1 | 3.7 µM
